Assay results from ChEMBL document CHEMBL3108715, “Pan-histone demethylase inhibitors simultaneously targeting Jumonji C and lysine-specific demethylases display high anticancer activities” (J Med Chem, 2014).
Calls of active or inactive are those of the source.

Columns and labels:
Format in all cases: functional, cell-based
[1] = tested on: LNCaP; assay: Antimigratory activity against human LNCAP cells at 50 uM after 72 hrs
[2] = tested on: HCT-116; assay: Cytotoxicity against human HCT116 cells at 50 uM after 72 hrs
[3] = tested on: HCT-116; assay: Antimigratory activity against human HCT116 cells at 50 uM after 72 hrs
[4] = tested on: LNCaP; assay: Cytotoxicity against human LNCAP cells at 50 uM after 72 hrs

Measured: Activity

O=C(CCCCCCC(=O)Nc1ccccc1)NO
active: all assays above
